Test results reported in patent US20140315738A1, “MARINE MEDAKA GENES RESPONDING TO THE EXPOSURE OF ENDOCRINE-DISRUPTING CHEMICALS, AND METHOD FOR DIAGNOSING AN AQUATIC ECO-SYSTEM CONTAMINATION USING SAME” (priority 2011, published 2014).

Tested on: Javanese medaka (Oryzias javanicus) livers
Test: real-time quantitative PCR of liver gene expression after exposure to 17β-estradiol
Format: in vivo
Conditions: duration of exposure 24 hr, 100 μg/L, β-actin control gene
Procedure: To 3 L beaker with 2 L filtered seawater therein, 10 male Javanese medaka bred in culture water tank were transported each time, and acclimated for 24 hr. […] Additionally, five Javanese medaka of Example <1-1> were exposed to BPA (76 μg/L) for 48 hr. […] The Javanese medaka was transported to ice water, one at a time, which momentarily stunned it, followed by beheading and evisceration and liver removal.
Primers for real-time quantitative PCR (RT-PCR) for the above genes were designed and synthesized (Table 3).
With RNA template extracted with the method of Example <2-1>, cDNA was synthesized using AB High Capacity RNA-to-cDNA Kit (Applied Biosystems, USA). RNA in the amount of 1 μg was seeded, added with distilled water and titrated to 9 μl. 2×RT buffer (10 μl), and 20× enzyme Mix 1 μl were mixed well, centrifuged and precipitated, and allowed to react at 37° C. for 60 min. The reactant was heated at 95° C. for 5 min, after which reaction was completed. The synthesized cDNA was stored at −20° C.
To the 0.5 μg synthesized cDNA (corresponding to approximately 10 ng/μl), 0.8 primer pairs of corresponding genes (10 pmol/μl), and 2 SYBR1 mixture (10 μl) were added. The final amount was titrated to 20 μl using distilled water. At temperature condition of 95° C. 10 min, 95° C. 30 sec, 60° C. 30 sec, 72° C. 30 sec, 40 cycles of PCR were conducted.

C[C@]12CC[C@@H]3c4ccc(O)cc4CC[C@H]3[C@@H]1CC[C@@H]2O [17β-estradiol]
Difference of expression level, Apolipoprotein B (SEQ ID 53): 2.5 times lower | Difference of expression level, Cytochrome P450 1A (CYP1A) (SEQ ID 5): 2.7 times lower | Difference of expression level, Glucose-6-phosphate dehydrogenase (SEQ ID 55): 2.2 times lower | Difference of expression level, Glutamate dehydrogenase 1b (SEQ ID 54): 5.2 times lower | Difference of expression level, Selenoprotein M (SEQ ID 8): 7.7 times higher | Difference of expression level, Transferrin (SEQ ID 56): 3.6 times lower | Difference of expression level, Vitellogenin 1 (SEQ ID 37): 59.1 times higher
